Data on 42 compounds can be found in patent US11760722B2 (priority 2022, dated 2023).

pEC50: −log10 of the molar value.

The first experiment concerns SARS-CoV-2 Delta USA/MD-HP05647/2021 (Lineage B.1.617.2). The experiment in a line: microbe, parasite or virus in culture. As to conditions: Severe acute respiratory syndrome coronavirus 2, Vero C1008, 4 h; read-out: Vero E6 Delta CPE/EC50. The format is cell-based.
Consider `CC(C)(C)[C@H](NC(=O)NC1(CS(=O)(=O)C(C)(C)C)CCCCC1)C(=O)N1C[C@H]2[C@@H]([C@H]1C(=O)N[C@H](C#N)C[C@@H]1CCNC1=O)C2(C)C` [Compound 16], for which the pEC50 was 5.53.

For `CC(C)(C)[C@H](NC(=O)C12CC(C1)C2)C(=O)N1C[C@H]2[C@@H]([C@H]1C(=O)N[C@H](C#N)C[C@@H]1CCNC1=O)C2(C)C` [Compound 20], the pEC50 is 6.42.

For `CC(C)(C)[C@H](NC(=O)c1cnc2[nH]ccc2c1)C(=O)N1C[C@H]2[C@@H]([C@H]1C(=O)N[C@H](C#N)C[C@@H]1CCNC1=O)C2(C)C` [Compound 32], the pEC50 is 4.00.

For `CC(C)(C)[C@H](NC(=O)CC#N)C(=O)N1C[C@H]2[C@@H]([C@H]1C(=O)N[C@H](C#N)C[C@@H]1CCNC1=O)C2(C)C` [Compound 33], the pEC50 is 6.03.

For the compound `CC(C)(C)[C@H](NC(=O)C12CC(F)(C1)C2)C(=O)N1C[C@H]2[C@@H]([C@H]1C(=O)N[C@H](C#N)C[C@@H]1CCNC1=O)C2(C)C` [Compound 34], the pEC50 is 6.56.

For `CNC(=S)N[C@H](C(=O)N1C[C@H]2[C@@H]([C@H]1C(=O)N[C@H](C#N)C[C@@H]1CCNC1=O)C2(C)C)C(C)(C)C` [Compound 35], the pEC50 is 7.11.

Turning to `CN(C)S(=O)(=O)N[C@H](C(=O)N1C[C@H]2[C@@H]([C@H]1C(=O)N[C@H](C#N)C[C@@H]1CCNC1=O)C2(C)C)C(C)(C)C` [Compound 47, (1R,2S,5S)—N—((S)-1-cyano-2-((S)-2-oxopyrrolidin-3-yl)ethyl)-3-((S)-2-((N,N-dimethylsulfamoyl)amino)-3,3-dimethylbutanoyl)-6,6-dimethyl-3-azabicyclo[3.1.0]hexane-2-carboxamide], the pEC50 was 6.62.

Take `CC(C)(C)[C@H](NS(=O)(=O)N1CCOCC1)C(=O)N1C[C@H]2[C@@H]([C@H]1C(=O)N[C@H](C#N)C[C@@H]1CCNC1=O)C2(C)C` [Compound 49]: the pEC50 was 5.80.

As to `CC1(C)[C@@H]2[C@@H](C(=O)N[C@H](C#N)C[C@@H]3CCNC3=O)N(C(=O)[C@@H](NC(=O)C(F)(F)F)C34CC(C3)C4)C[C@@H]21` [Compound 50], the pEC50 is 6.24.

On to `CC(C)(C)[C@H](NS(=O)(=O)c1ccc(F)cc1)C(=O)N1C[C@H]2[C@@H]([C@H]1C(=O)N[C@H](C#N)C[C@@H]1CCNC1=O)C2(C)C` [Compound 53, (1R,2S,5S)—N—((S)-1-cyano-2-((S)-2-oxopyrrolidin-3-yl)ethyl)-3-((S)-2-((4-fluorophenyl)sulfonamido)-3,3-dimethylbutanoyl)-6,6-dimethyl-3-azabicyclo[3.1.0]hexane-2-carboxamide], for which the pEC50 is 7.83.

With `CC(C)(C)[C@H](NS(=O)(=O)c1ccc(Cl)s1)C(=O)N1C[C@H]2[C@@H]([C@H]1C(=O)N[C@H](C#N)C[C@@H]1CCNC1=O)C2(C)C` [Compound 54], the pEC50 was greater than 8.35.

For the compound `CC(C)(C)[C@H](NC(=O)CS(C)(=O)=O)C(=O)N1C[C@H]2[C@@H]([C@H]1C(=O)N[C@H](C#N)C[C@@H]1CCNC1=O)C2(C)C` [Compound 64], the pEC50 is 5.88.

In the case of `C=C(F)C(=O)N[C@H](C(=O)N1C[C@H]2[C@@H]([C@H]1C(=O)N[C@H](C#N)C[C@@H]1CCNC1=O)C2(C)C)C(C)(C)C` [Compound 66], the pEC50 is 7.03.

In the case of `CCNC(=S)N[C@H](C(=O)N1C[C@H]2[C@@H]([C@H]1C(=O)N[C@H](C#N)C[C@@H]1CCNC1=O)C2(C)C)C(C)(C)C` [Compound 72], the pEC50 was 6.58.

As for `CC(C)(C)[C@H](NC(=O)C(F)(Cl)C(F)(F)F)C(=O)N1C[C@H]2[C@@H]([C@H]1C(=O)N[C@H](C#N)C[C@@H]1CCNC1=O)C2(C)C` (some centres unmarked) [Compound 75], the pEC50 was 7.35.

Turning to `CC(C)(C)[C@H](NC(=S)NC1CC1)C(=O)N1C[C@H]2[C@@H]([C@H]1C(=O)N[C@H](C#N)C[C@@H]1CCNC1=O)C2(C)C` [Compound 76], the pEC50 is 6.08.

As to `CN(C)C(=S)N[C@H](C(=O)N1C[C@H]2[C@@H]([C@H]1C(=O)N[C@H](C#N)C[C@@H]1CCNC1=O)C2(C)C)C(C)(C)C` [Compound 77], the pEC50 was 5.81.

Consider `CC(C)(C)[C@H](NC(=O)C(F)(F)C(F)(F)Cl)C(=O)N1C[C@H]2[C@@H]([C@H]1C(=O)N[C@H](C#N)C[C@@H]1CCNC1=O)C2(C)C` [Compound 80], for which the pEC50 is 7.69.

On to `CC(C)(C)[C@H](NC(=O)Cc1ccc2c(c1)CCC2)C(=O)N1C[C@H]2[C@@H]([C@H]1C(=O)N[C@H](C#N)C[C@@H]1CCNC1=O)C2(C)C` [Compound 82], for which the pEC50 was 8.02.

Take `CC(C)(C)[C@H](NS(=O)(=O)c1ccc2c(c1)CCO2)C(=O)N1C[C@H]2[C@@H]([C@H]1C(=O)N[C@H](C#N)C[C@@H]1CCNC1=O)C2(C)C` [Compound 83]: the pEC50 was 7.69.

For `CC(C)(C)[C@H](NS(=O)(=O)c1cccc2ccccc12)C(=O)N1C[C@H]2[C@@H]([C@H]1C(=O)N[C@H](C#N)C[C@@H]1CCNC1=O)C2(C)C` [Compound 85], the pEC50 was greater than 8.35.

With `CC(C)(C)NC(=O)N[C@H](C(=O)N1C[C@H]2[C@@H]([C@H]1C(=O)N[C@H](C#N)C[C@@H]1CCNC1=O)C2(C)C)C(C)(C)C` [Compound 87], the pEC50 is 6.24.

`CC(C)(C)[C@H](NS(=O)(=O)c1ccc(OC(F)(F)F)cc1)C(=O)N1C[C@H]2[C@@H]([C@H]1C(=O)N[C@H](C#N)C[C@@H]1CCNC1=O)C2(C)C` [Compound 89]: the pEC50 is 7.21.

Take `CC(C)(C)[C@H](NS(=O)(=O)c1ccc(C(F)(F)F)cc1)C(=O)N1C[C@H]2[C@@H]([C@H]1C(=O)N[C@H](C#N)C[C@@H]1CCNC1=O)C2(C)C` [Compound 90]: the pEC50 was 8.47.

As to `CC(C)(C)[C@H](NS(=O)(=O)c1cccnc1)C(=O)N1C[C@H]2[C@@H]([C@H]1C(=O)N[C@H](C#N)C[C@@H]1CCNC1=O)C2(C)C` [Compound 93], the pEC50 is 6.43.

On to `CC(C)(C)[C@H](NS(=O)(=O)c1ccccc1)C(=O)N1C[C@H]2[C@@H]([C@H]1C(=O)N[C@H](C#N)C[C@@H]1CCNC1=O)C2(C)C` [Compound 95], for which the pEC50 is 7.97.

Regarding `Cc1ccc(S(=O)(=O)N[C@H](C(=O)N2C[C@H]3[C@@H]([C@H]2C(=O)N[C@H](C#N)C[C@@H]2CCNC2=O)C3(C)C)C(C)(C)C)cc1` [Compound 96], the pEC50 is greater than 8.35.

Consider `CC(C)(C)[C@H](NS(=O)(=O)c1ccc(F)c(F)c1)C(=O)N1C[C@H]2[C@@H]([C@H]1C(=O)N[C@H](C#N)C[C@@H]1CCNC1=O)C2(C)C` [Compound 99], for which the pEC50 was 7.65.

As for `CC(C)(C)[C@H](NS(=O)(=O)c1cccs1)C(=O)N1C[C@H]2[C@@H]([C@H]1C(=O)N[C@H](C#N)C[C@@H]1CCNC1=O)C2(C)C` [Compound 100], the pEC50 was 7.43.

For `COc1ccc(S(=O)(=O)N[C@H](C(=O)N2C[C@H]3[C@@H]([C@H]2C(=O)N[C@H](C#N)C[C@@H]2CCNC2=O)C3(C)C)C(C)(C)C)cc1` [Compound 101], the pEC50 is 9.51.

Take `CC(C)(C)[C@H](NS(=O)(=O)c1ccc2ccccc2c1)C(=O)N1C[C@H]2[C@@H]([C@H]1C(=O)N[C@H](C#N)C[C@@H]1CCNC1=O)C2(C)C` [Compound 102]: the pEC50 was greater than 8.35.

For `CC(C)[C@H]1CC[C@H](C)C[C@@H]1OCC(=O)N[C@H](C(=O)N1C[C@H]2[C@@H]([C@H]1C(=O)N[C@H](C#N)C[C@@H]1CCNC1=O)C2(C)C)C(C)(C)C` [Compound 110], the pEC50 is 5.70.

Regarding `CC(C)(C)[C@H](NS(=O)(=O)c1cc2ccccc2s1)C(=O)N1C[C@H]2[C@@H]([C@H]1C(=O)N[C@H](C#N)C[C@@H]1CCNC1=O)C2(C)C` [Compound 111], the pEC50 is greater than 8.35.

As for `Cc1csc(S(=O)(=O)N[C@H](C(=O)N2C[C@H]3[C@@H]([C@H]2C(=O)N[C@H](C#N)C[C@@H]2CCNC2=O)C3(C)C)C(C)(C)C)c1` [Compound 112], the pEC50 is 7.20.

Regarding `CC(C)(C)[C@H](NS(=O)(=O)c1ccc(F)s1)C(=O)N1C[C@H]2[C@@H]([C@H]1C(=O)N[C@H](C#N)C[C@@H]1CCNC1=O)C2(C)C` [Compound 113], the pEC50 was 7.78.

As for `CC(C)(C)[C@H](NS(=O)(=O)c1sccc1Cl)C(=O)N1C[C@H]2[C@@H]([C@H]1C(=O)N[C@H](C#N)C[C@@H]1CCNC1=O)C2(C)C` [Compound 114], the pEC50 was 7.79.

With `CN(C)[C@@H]1C[C@@H](C(=O)N[C@H](C#N)C[C@@H]2CCNC2=O)N(C(=O)[C@@H](NC(=O)C(F)(F)F)C(C)(C)C)C1` [Compound 116], the pEC50 was 5.40.

For `CC(C)(C)c1ccc(S(=O)(=O)N[C@H](C(=O)N2C[C@H]3[C@@H]([C@H]2C(=O)N[C@H](C#N)C[C@@H]2CCNC2=O)C3(C)C)C(C)(C)C)s1` [Compound 117], the pEC50 was 6.47.

On to `Cc1ccc(S(=O)(=O)N[C@H](C(=O)N2C[C@H]3[C@@H]([C@H]2C(=O)N[C@H](C#N)C[C@@H]2CCNC2=O)C3(C)C)C(C)(C)C)s1` [Compound 118], for which the pEC50 is 7.63.

On to `CC(C)(C)[C@H](NC(=O)c1ccc2c(c1)CCC2)C(=O)N1C[C@H]2[C@@H]([C@H]1C(=O)N[C@H](C#N)C[C@@H]1CCNC1=O)C2(C)C` [Compound 120], for which the pEC50 is 5.10.

In the case of `CC(C)(C)[C@H](NS(=O)(=O)c1ccc(C2CC2)cc1)C(=O)N1C[C@H]2[C@@H]([C@H]1C(=O)N[C@H](C#N)C[C@@H]1CCNC1=O)C2(C)C` [Compound 121], the pEC50 was greater than 8.35.

With `CC(C)(C)[C@H](NS(=O)(=O)c1ccns1)C(=O)N1C[C@H]2[C@@H]([C@H]1C(=O)N[C@H](C#N)C[C@@H]1CCNC1=O)C2(C)C` [Compound 122], the pEC50 is 6.74.

Staying with this experiment, now noted: read-out: Vero E6 Delta CPE/EC50.
Turning to `CC(C)(C)[C@H](NC(=O)C12CC(C1)C2)C(=O)N1C[C@H]2[C@@H]([C@H]1C(=O)N[C@H](C#N)C[C@@H]1CCNC1=O)C2(C)C` [Compound 20], the pEC50 is 6.41.

As to `CNC(=S)N[C@H](C(=O)N1C[C@H]2[C@@H]([C@H]1C(=O)N[C@H](C#N)C[C@@H]1CCNC1=O)C2(C)C)C(C)(C)C` [Compound 35], the pEC50 was 6.83.

`CC(C)(C)[C@H](NS(=O)(=O)c1ccc(F)cc1)C(=O)N1C[C@H]2[C@@H]([C@H]1C(=O)N[C@H](C#N)C[C@@H]1CCNC1=O)C2(C)C` [Compound 53, (1R,2S,5S)—N—((S)-1-cyano-2-((S)-2-oxopyrrolidin-3-yl)ethyl)-3-((S)-2-((4-fluorophenyl)sulfonamido)-3,3-dimethylbutanoyl)-6,6-dimethyl-3-azabicyclo[3.1.0]hexane-2-carboxamide]: the pEC50 was 7.69.

For the compound `C=C(F)C(=O)N[C@H](C(=O)N1C[C@H]2[C@@H]([C@H]1C(=O)N[C@H](C#N)C[C@@H]1CCNC1=O)C2(C)C)C(C)(C)C` [Compound 66], the pEC50 is 7.01.

On to `CC(C)(C)[C@H](NC(=O)C(F)(Cl)C(F)(F)F)C(=O)N1C[C@H]2[C@@H]([C@H]1C(=O)N[C@H](C#N)C[C@@H]1CCNC1=O)C2(C)C` (some centres unmarked) [Compound 75], for which the pEC50 was 7.30.
